Each structure is given as a SMILES string. Where two headings read alike, the source gives them in different places.

The test system of series [1] is HIF1 ODD-luc reporter (SH-SY5Y cell line). The experiment in a line: HIF1 ODD-luc reporter assay. In kind it is cell-based. To be noted: for ODD-luc fold activation / fold induction at 10 µM: at 10 µM, 3 h incubation; for fold induction at 10 µM: Homo sapiens, SH-SY5Y, 3 h, read-out: ODD-luc fold activation. Here is the method: (§1) SH-SY5Y cell lines stably expressing HIF1 ODD-luc or Neh2-luc reporters were grown in the DMEM/F12 supplemented with GlutaMAX (Thermo Fisher Scientific) containing 10% FBS, 100 U/ml penicillin, and 100 μg/ml streptomycin and plated into 384-well white flat-bottom plates at 7,000 cell/well in 30 µl serum and incubated overnight at 37°C, 5% CO2. The next day compounds were added to a final concentration of 10 µM and the plates were incubated for 3 hours at 37°C. Reporter activation after 3 h incubation with the studied compound was compared to that for ciclopirox (HIF1 ODD-luc reporter) or TBHQ (Neh2-luc reporter), taken as 100%. Luciferase reporter activity was measured with a SteadyGlo reagent from Promega providing stable reading for 1 h.
(§2) Cells were plated at the density of 25,000 cell per well using a WellMate multichannel dispenser from Matrix (Thermo Fisher Scientific, Waltham, MA) and grown overnight on DMEM/F12+GlutaMAX (100 µl per well). Then an inhibitor was added, and the plates were incubated for a fixed time interval; the medium was removed, cells lysed, and luciferase activity was measured on a SpectraMax M5e platereader (Molecular Devices, Sunnyvale, CA) with BrightGlo™ reagent (Promega, Madison, WI). The reporter activation was normalized to the background luminescence. The effect of 0.5 mM N-acetylcysteine (NAC) was studied by simultaneous addition of 5 µL of 10 mM stock of NAC in water and 2 µL of 50x stock solutions of a flavonoid in DMSO.

In series [2] the test system is HRE-luciferase reporter (HT22 hippocampal cell line). The experiment in a line: HRE-luc reporter assay. In kind it is cell-based. To be noted: for fold induction at 10 µM: Mus musculus, HT-22, 3 h, read-out: HRE-luc fold activation; for fold induction at 10 µM / HRE-luc fold activation: at 10 µM. The source says: A promoter-reporter construct that contained 68 bp of a known hypoxia and HIF-1 regulated gene, enolase, containing a wild type hypoxia response element (HRE, 5’-RCTGT-3’), is a widely used approach for screening for HIF activators of different mechanism of action. A cell-based assay with HRE-luciferase reporter system is based on transfected immortalized hippocampal cell line (HT22) and allows screening for a broad spectrum of compounds that include: activators of HIF transcription; activators of HIF binding to HRE; and effectors of HIF protein stability (PHD inhibitors, pVHL & proteasome inhibitors). The assay was performed the same way as for HIF ODD-luc reporter except the cells were plated at the density of 10,000 cell per well and incubated overnight.

Series [3] has as its system Neh2-luc reporter (SH-SY5Y cell line). The experiment in a line: Neh2-luc reporter assay. Type of series: cell-based. To be noted: for EC50: Neh2-luc. How it is done: as §1, §2
(A reporter such as luciferase makes a cellular process visible.)

Series [4] in a line: Iron binding constant, calcein displacement assay. To be noted: for Iron complex Diss. Const: calcein displacement. Type of series: physicochemical. The source says:
Calcein displacement assay in the presence of varied concentrations of flavonoids and catechols has been used. Calcein release from its complex with iron was monitored by fluorescence as described in [26].

Details of series [5]: method as in PMID 17112238. To be noted: cited from earlier work.
A short description of series [6]: Non-enzymatic ferricyanide reduction rate constant. The settings on record: 1 mM ferricyanide, pH 7.0. In kind it is physicochemical. Here is the method: The rate of ferricyanide reduction by individual flavonoids was measured spectrophotometrically at 420 nm with the fixed concentration of ferricyanide (1 mM) and varied concentrations of a flavonoid in Potassium-phosphate buffer, pH 7.0. The rate constant for direct ferricyanide reduction was calculated from the slope of the dependence reaction rate vs flavonoid concentration and used as a measure of flavonoid non-specific reducing power.

For `O=c1cc(-c2ccc(O)cc2)oc2cc(O)cc(O)c12` [compound 16, Apigenin], the ODD-luc fold activation entry in series [1] is on record as “Inactive”. For the same molecule, in series [2], the fold induction at 10 µM was 1.3 ± 0.15. The Neh2-luc fold activation entry in series [3] (at 10 µM, 3 h incubation) is “Inactive”. For the same molecule, in series [4], the “Iron complex Diss. Const” value is on record as “Inactive”. In addition, the EHOMO in series [5] is on record as -9.15 eV.

What is called EC50 is the concentration at which the effect is half-maximal. On to `O=c1c(O)c(-c2cc(O)c(O)c(O)c2)oc2cc(O)cc(O)c12` [compound 13, Myricetin], for which the fold induction at 10 µM in series [1] turned out to be 1.3 ± 0.2; in series [2], 2 ± 0.2; in series [3] (Homo sapiens, SH-SY5Y, at 10 µM, 3 h incubation, read-out: Neh2-luc fold activation), 25 ± 3. The same molecule gave an EC50 in series [3] (Homo sapiens, SH-SY5Y) of 2 µM. The “Iron complex Diss. Const” value in series [4] was 2.0 ± 0.2 µM. The EHOMO in series [5] is given as -8.80 eV.

Regarding `O=c1cc(-c2ccccc2)oc2c(O)c(O)ccc12` [compound 20, 7,8-Dihydroxyflavone], the fold induction at 10 µM in series [1] is 1.5 ± 0.2. Moreover, the fold induction at 10 µM in series [2] was 3.6 ± 0.4. Also, the Neh2-luc fold activation result in series [3] (at 10 µM, 3 h incubation) was “Inactive”. In series [4], the iron dissociation constant entry was “ca. 700 nM” and the “Iron complex Diss. Const” value was 0.7 ± 0.1 µM. Moreover, the EHOMO in series [5] is -9.23 eV.

Regarding `O=c1c(O)c(-c2ccccc2)oc2cc(O)ccc12` [compound 2, 3,7-Dihydroxy-], the “Iron complex Diss. Const” value in series [4] was 2.5 ± 0.3 µM. Besides, in series [6], the “FC red Rate Const” value was “inactive”.

On to `O=C(O)CN(CC(=O)O)Cc1cc2c(cc1O)Oc1cc(O)c(CN(CC(=O)O)CC(=O)O)cc1C21OC(=O)c2ccccc21` [compound 34, Calcein, reference compound], for which the fold induction at 10 µM was found to be 2 ± 0.25 in series [1] and 1.7 ± 0.2 in series [2]. Further, in series [3] (at 10 µM, 3 h incubation), the Neh2-luc fold activation entry is listed as “Inactive”. Besides, the “Iron complex Diss. Const” value in series [4] was 0.05 ± 0.01 µM.

With `O=c1c(O)c(-c2ccccc2)oc2ccccc12` [compound 1, 3-Hydroxyflavone], the fold induction at 10 µM in series [1] and in series [2] was 1.5 ± 0.2 in each case. Moreover, the Neh2-luc fold activation entry in series [3] (at 10 µM, 3 h incubation) was “inactive”; in series [3] (at 10 µM, 3 h incubation, listed as 3-hydroxyflavone), “completely inactive”. Further, the “Iron complex Diss. Const” value was 2.0 ± 0.2 µM in series [4] and “ca. 2 µM” in series [4] (listed as 3-Hydroxyflavone). For the same molecule, the “FC red Rate Const” value in series [6] is “inactive”.

For the molecule `O=C(NO)c1ccc(O)c(O)c1` [compound 33, 3,4-Dihydroxy-benzohydroxamate], the results for the “ODD-luc: concentration above which active” value in series [1] and in series [1] (listed as Didox) were “Active above 100 µM” and “above 100 µM”, respectively. Besides, the “HRE-luc: concentration above which active” value in series [2] is reported as “Active above 100 µM”. In series [3], this molecule showed an EC50 of 100 µM. For the same molecule, in series [3] (at 10 µM, 3 h incubation), the Neh2-luc fold activation result is “Inactive”. Further, in series [4], the “Iron complex Diss. Const” value was 1.5 ± 0.3 µM.

In the case of `COc1ccc(-c2oc3ccccc3c(=O)c2O)cc1` [compound 4, 3-Hydroxy-4'-methoxy-], in series [4], the “Iron complex Diss. Const” value was 4.0 ± 0.4 µM.

With `O=c1c(-c2ccc(O)cc2)coc2cc(O)cc(O)c12` [compound 23, Genistein], the ODD-luc fold activation result in series [1] is given as “Inactive”. The fold induction at 10 µM in series [2] is 1.5 ± 0.2. In series [3] (at 10 µM, 3 h incubation), the Neh2-luc fold activation entry is recorded as “Inactive”. The “Iron complex Diss. Const” value in series [4] is reported as “Inactive”.

With `O=c1cc(-c2ccccc2)oc2cccc(O)c12` [compound 14, 5-hydroxyflavone], the ODD-luc fold activation result in series [1] is on record as “Inactive”. Also, in series [2], the HRE-luc fold activation entry is “Inactive”. Besides, in series [3] (at 10 µM, 3 h incubation), the Neh2-luc fold activation result was “Inactive”. The “Iron complex Diss. Const” value was “Inactive” in series [4] and “does not bind iron in solution” in series [4] (listed as 5-hydroxyflavone). For the same molecule, the EHOMO in series [5] is reported as -9.12 eV.

As for `O=c1cc(-c2ccccc2)oc2cc(O)cc(O)c12` [compound 15, Chrysin], in series [1], the ODD-luc fold activation result was “Inactive”. Further, the fold induction at 10 µM in series [2] is 1.2 ± 0.15. Also, in series [3] (at 10 µM, 3 h incubation), the Neh2-luc fold activation entry is on record as “Inactive”. Also, the “Iron complex Diss. Const” value in series [4] is given as “Inactive”. Moreover, the EHOMO in series [5] was -9.25 eV.

Regarding `COc1cc(C)c2c(=O)cc(-c3ccccc3)oc2c1` [compound 21, Methoxyvone], the ODD-luc fold activation entry in series [1] was “Inactive”. Besides, the fold induction at 10 µM in series [2] came out at 3.2 ± 0.35. The Neh2-luc fold activation result in series [3] (at 10 µM, 3 h incubation) is given as “Inactive”. Also, the “Iron complex Diss. Const” value in series [4] was “Inactive”.

Consider `O=c1c(-c2ccc(O)cc2)coc2c(O)c(O)ccc12` [compound 25, 8-Hydroxy-daidzein], for which the ODD-luc fold activation result in series [1] is “Inactive”. For the same molecule, the HRE-luc fold activation entry in series [2] was “Inactive”. Also, the Neh2-luc fold activation result in series [3] (at 10 µM, 3 h incubation) is recorded as “Inactive”. In series [4], the “Iron complex Diss. Const” value is 1.5 ± 0.3 µM.

With `COc1ccc2c(=O)c(O)c(-c3ccccc3)oc2c1` [compound 5, 3-Hydroxy-7-methoxy-], in series [1], the ODD-luc fold activation entry is recorded as “Inactive”. The HRE-luc fold activation result in series [2] is reported as “Inactive”. The Neh2-luc fold activation entry in series [3] (at 10 µM, 3 h incubation) is listed as “Inactive”. For the same molecule, the entries for the “Iron complex Diss. Const” value in series [4] and in series [4] (listed as 3-hydroxy-7-methoxyflavone) were 5.0 ± 0.5 µM and “ca. 5 µM”, respectively.

On to `O=c1c(O)c(-c2ccc(O)cc2O)oc2cc(O)cc(O)c12` [compound 12, Morin], for which the ODD-luc fold activation entry in series [1] is “Inactive”. In addition, in series [2], the fold induction at 10 µM stood at 1.3 ± 0.2. For the same molecule, the Neh2-luc fold activation entry in series [3] (at 10 µM, 3 h incubation) is “Inactive”; in series [3] (at 10 µM, 3 h incubation, listed as morin), “completely inactive”. In series [4], the “Iron complex Diss. Const” value is 2.5 ± 0.3 µM. In series [5], the EHOMO is -8.81 eV.

With `COc1ccc2c(=O)c(OC)c(-c3ccccc3)oc2c1` [compound 6, 3,7-Dimethoxy-], the ODD-luc fold activation result in series [1] is listed as “Inactive”. Further, the HRE-luc fold activation result in series [2] is “inactive”. In series [3] (at 10 µM, 3 h incubation), the Neh2-luc fold activation entry is on record as “Inactive”.

With `O=c1c(O)c(-c2ccc(O)cc2)oc2ccccc12` [compound 3, 3,4'-Dihydroxy-], the ODD-luc fold activation result in series [1] is listed as “Inactive”. The HRE-luc fold activation result in series [2] is given as “Inactive”. For the same molecule, the “Iron complex Diss. Const” value in series [4] was 2.5 ± 0.2 µM. For the same molecule, in series [6], the “FC red Rate Const” value is reported as “Inactive”.

Take `O=c1c(-c2ccc(O)cc2)coc2cc(O)ccc12` [compound 26, Daidzein]: the results for the ODD-luc fold activation entry in series [1] and in series [1] (listed as daidzein) were “Inactive” and “did not cause any activation effect”, respectively. Moreover, in series [2], the HRE-luc fold activation entry is recorded as “Inactive”. The Neh2-luc fold activation entry was “Inactive” in series [3] (at 10 µM, 3 h incubation) and “not” in series [3] (at 10 µM, 3 h incubation, listed as daidzein). The “Iron complex Diss. Const” value in series [4] is reported as “Inactive”.

Regarding `CC(C)Oc1ccc2c(=O)c(-c3ccccc3)coc2c1` [compound 22, Ipriflavone], in series [1], the ODD-luc fold activation entry is reported as “Inactive”. The fold induction at 10 µM in series [2] amounted to 2.5 ± 0.3. The Neh2-luc fold activation result in series [3] (at 10 µM, 3 h incubation) was “Inactive”. For the same molecule, in series [4], the “Iron complex Diss. Const” value is reported as “Inactive”.

Turning to `O=c1c(-c2ccc(O)cc2)coc2cc(O)cc(O)c12` [compound 24, 5-Hydroxy-daidzein], in series [2], the HRE-luc fold activation entry was “Inactive”.

Regarding `N[C@H](Cc1ccc(O)c(O)c1)C(=O)O` [compound 30, 3,4-Dihydroxy-D-phenylalanine], in series [1], the ODD-luc fold activation result was “Inactive”. Moreover, the HRE-luc fold activation entry in series [2] is given as “Inactive”. The EC50 in series [3] (Homo sapiens, SH-SY5Y) came out at 20 µM. Moreover, the Neh2-luc fold activation entry in series [3] (at 10 µM, 3 h incubation) is on record as “Inactive”. In addition, the “Iron complex Diss. Const” value in series [4] is 2.5 ± 0.3 µM.

As for `O=c1c(O)c(-c2ccccc2)oc2cccc(O)c12` [compound 7, 3,5-Dihydroxy-], the results for the fold induction at 10 µM in series [1] and in series [2] were 1.3 ± 0.2 and 2 ± 0.2, respectively. In addition, in series [3] (at 10 µM, 3 h incubation), the Neh2-luc fold activation result is reported as “Inactive”. In series [4], the “Iron complex Diss. Const” value was 2.5 ± 0.3 µM. Besides, the “FC red Rate Const” value in series [6] is “inactive”.
